molecular target: T1, NS3 protease (Hepatitis C virus genotype 1b, UniProt P26663); experiment: NS3 protease cell-based assay (SEAP reporter, Huh-7 cells); design: species or system HCV; conditions: SEAP activity, 24-hour incubation, read-out: cell. act. (EC50 code)
T1 construct: expressed in transfected cells; host or cells: Huh-7 human hepatoma cells, transient co-transfection (CMV promoter)
Description: This assay is done with Huh-7 cells, a human cell line derived from a hepatoma, co-transfected with 2 DNA constructs: one (called NS3) expressing part of the HCV non-structural polyprotein fused to the tTA protein through an NS5A-NS5B cleavage site in the following order: NS3-NS4A-NS4B-NS5A-(NS5B)tTA where (NS5B) represents the 6 first amino acids of NS5
B. This polyprotein is expressed under the control of the CMV promoter, the other (called SEAP) expressing the reporter protein, secreted alkaline phosphatase (SEAP), under the regulation of a tTA-responsive promoter. The first construct leads to the expression of a polyprotein from which the different mature proteins are released through cleavage by the NS3 protease. It is believed that the mature viral proteins forms a complex at the membrane of the endoplasmic reticulum. tTA is a fusion protein, described by Gossen and Bujard (Proc. Natl. Acad. Sci. USA 89 (1992): 5547-5551), which contains a DNA-binding domain and a transcriptional activator. Release of the tTA protein requires an NS3-dependent cleavage at the NS5A-NS5B cleavage site between NS5A and itself. This last cleavage allows tTA to migrate to the nucleus and transactivate the SEAP gene. Therefore, reduction of NS3 proteolytic activity leads to confinement of tTA to the cytoplasm and concomitant decrease in SEAP activity.
To control for cellular activities other than inhibition of NS3 protease which are due to the compound, a parallel co-transfection is done with a construct expressing tTA alone and the same reporter construct such that SEAP activity is independent of the NS3 protease.
Protocol of the assay: Huh-7 cells, grown in CHO-SFMII (Life Technologies)+10% FCS (fetal calf serum) were co-transfected with the two DNA constructs in the following proportions: 7 μg NS3+500 ng SEAP+[…] FuGENE (Boehringer Mannheim) per 4×10^6 Huh-7 cells. After 5 hours at 37° C., the cells were washed, trypsinized and plated (at 80 000 cells/well) in 96-well plates containing a range of concentrations of the compounds to be tested. After a 24-hour incubation period, the SEAP activity in the medium was measured with the Phospha-Light kit (Tropix).
Analysis of the percent inhibition of SEAP activity with respect to compound concentration was performed with the SAS software to obtain the EC50.

T1 sequence (P26663 1658-1711): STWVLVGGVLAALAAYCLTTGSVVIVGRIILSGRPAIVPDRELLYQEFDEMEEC
T1 sequence (P26663 1027-1657): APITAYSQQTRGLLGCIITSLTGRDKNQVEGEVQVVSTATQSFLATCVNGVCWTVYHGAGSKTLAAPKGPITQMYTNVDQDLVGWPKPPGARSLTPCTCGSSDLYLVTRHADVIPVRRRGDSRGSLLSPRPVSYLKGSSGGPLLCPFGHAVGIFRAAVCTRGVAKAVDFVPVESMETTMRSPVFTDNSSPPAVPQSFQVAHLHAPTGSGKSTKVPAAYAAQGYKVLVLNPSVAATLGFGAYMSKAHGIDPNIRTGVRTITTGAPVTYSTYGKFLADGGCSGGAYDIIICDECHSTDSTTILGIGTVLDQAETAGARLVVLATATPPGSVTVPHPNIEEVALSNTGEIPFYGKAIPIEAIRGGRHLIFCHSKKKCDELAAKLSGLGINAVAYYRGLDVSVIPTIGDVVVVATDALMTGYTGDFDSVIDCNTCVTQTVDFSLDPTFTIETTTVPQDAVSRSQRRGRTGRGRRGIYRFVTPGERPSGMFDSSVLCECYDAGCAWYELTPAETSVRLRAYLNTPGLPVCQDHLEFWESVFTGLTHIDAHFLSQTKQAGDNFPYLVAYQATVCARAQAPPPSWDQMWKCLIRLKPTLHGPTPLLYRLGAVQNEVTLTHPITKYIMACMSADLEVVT

Compound | EC50 [µM]
COc1ccc2c(O[C@@H]3C[C@H]4C(=O)N[C@]5(C(=O)O)CC5CCCCCCC[C@H](NC(=O)OC5CCCC5)C(=O)N4C3)cc(-c3csc(NC(C)=O)n3)nc2c1 (stereo partly shown) [Compound 909] | ≤ 1
CCNc1nc(-c2cc(O[C@@H]3C[C@H]4C(=O)N[C@]5(C(=O)O)CC5CCCCCCC[C@H](NC(=O)OC5CCCC5)C(=O)N4C3)c3ccc(OC)cc3n2)cs1 (stereo partly shown) [Compound 910] | ≤ 1
COc1ccc2c(O[C@@H]3C[C@H]4C(=O)N[C@]5(C(=O)O)CC5CCCCCCC[C@H](NC(=O)OC5CCCC5)C(=O)N4C3)cc(-c3csc(NC(C)C)n3)nc2c1 (stereo partly shown) [Compound 911] | ≤ 1

molecular target: T2, His-NS3-NS4AFL (full-length NS3-NS4A protein complex) (Hepatitis C virus genotype 1b, UniProt P26663); experiment: Full-length NS3-NS4A heterodimer protein fluorogenic assay; type: biochemical, HCV genotype 1b; conditions: not given
T2 construct: made in house; host or cells: Sf21 insect cells, recombinant baculovirus (Bac-to-Bac, pFastBac HTa)
Description: The NS2-NS5B-3′non coding region was cloned by RT-PCR into the pCR®3 vector (Invitrogen) using RNA extracted from the serum of an HCV genotype 1b infected individual (provided by Dr. Bernard Willems, Hôpital St-Luc, Montréal, Québec, Canada). The NS3-NS4A region (NS3-NS4AFL) was then subcloned by PCR into the pFastBac™ HTa baculovirus expression vector (Gibco/BRL). The vector sequence includes a region encoding a 28-residue N-terminal sequence which contains a hexahistidine tag. The Bac-to-Bac™ baculovirus expression system (Gibco/BRL) was used to produce the recombinant baculovirus. His-NS3-NS4AFL was expressed by infecting 10^6 Sf21 cells/mL with the recombinant baculovirus at a multiplicity of infection of 0.1-0.2 at 27°. Authentic auto-proteolysis occurs during expression to produce a non covalent and stable NS3-NS4A protein complex (referred to as full-length “FL”). The infected culture was harvested 48 to 64 h later by centrifugation at 4°. The cell pellet was homogenized in 50 mM NaPO4, pH 7.5, 40% glycerol (w/v), 2 mM β-mercaptoethanol, in presence of a cocktail of protease inhibitors. His-NS3-NS4AFL was then extracted from the cell lysate with 1.5% NP-40, 0.5% Triton X-100, 0.5M NaCl, and a DNase treatment. After ultracentrifugation, the soluble extract was diluted 4-fold and bound on a Pharmacia Hi-Trap Ni-chelating column. The His-NS3-NS4AFL was eluted in a >90% pure form (as judged by SDS-PAGE), using a 50 to 400 mM imidazole gradient. The His-NS3-NS4AFL was stored at −80° in 50 mM sodium phosphate, pH 7.5, 10% (w/v) glycerol, 0.5 M NaCl, 0.25 M imidazole, 0.1% NP-40. It was thawed on ice and diluted just prior to use.
The protease activity of His-NS3-NS4AFL was assayed in 50 mM Tris-HCl, pH 8.0, 0.25 M sodium citrate, 0.01% (w/v) n-dodecyl-β-D-maltoside, 1 mM TCEP. Five (5) μM of the internally quenched substrate anthranilyl-DDIVPAbu[C(O)—O]-AMY(3-NO2)TW-OH (SEQ. ID NO.: 1) in presence of various concentrations of inhibitor were incubated with 1.5 nM of His-NS3-NS4AFL for 45 min at 23°. […] The reaction was terminated with the addition of 1M MES, pH 5.8. Fluorescence of the N-terminal product was monitored on a Perkin-Elmer LS-50B fluorometer equipped with a 96-well plate reader (excitation wavelength: 325 nm, emission wavelength: 423 nm).
The % inhibition was calculated with the following equation:
100−[(fluoinh−fluoblank)/(fluoctl−fluoblank)×100]
A non-linear curve fit with the Hill model was applied to the inhibition-concentration data, and the 50% effective concentration (IC50) was calculated by the use of SAS software (Statistical Software System; SAS Institute, Inc. Cary, N.C.).

T2 sequence (P26663 1658-1711): as the sequence (P26663 1658-1711) above
T2 sequence (P26663 1027-1657): as the sequence (P26663 1027-1657) above

Compound | IC50 [µM]
COc1ccc2c(O[C@@H]3C[C@H]4C(=O)N[C@]5(C(=O)O)C[C@H]5/C=C\CCC(O)CC[C@H](NC(=O)OC(C)(C)C)C(=O)N4C3)cc(-c3ccccc3)nc2c1 (mixture of isomers) [Compound 217] | < 0.1
COc1ccc2c(O[C@@H]3C[C@H]4C(=O)N[C@]5(C(=O)O)C[C@H]5/C=C\CCCCCC(O)C(=O)N4C3)ccnc2c1 (single isomer, unassigned) [Compound 213] | 0.1 to 1
CC(C)(C)OC(=O)N[C@H]1CCC/C=C/CC[C@@H]2C[C@@]2(C(=O)O)NC(=O)[C@@H]2CC(Oc3ccnc4ccccc34)CN2C1=O (stereo partly shown) [Compound 202] | 0.1 to 1
CC(=O)N[C@H]1CCC/C=C/CC[C@@H]2C[C@@]2(C(=O)O)NC(=O)[C@@H]2CC(Oc3ccnc4ccccc34)CN2C1=O (stereo partly shown) [Compound 203] | > 1
CC(C)(C)OC(=O)N[C@H]1CCCC(O)C(O)CC[C@@H]2C[C@@]2(C(=O)O)NC(=O)[C@@H]2CC(Oc3ccnc4ccccc34)CN2C1=O (stereo partly shown) [Compound 205] | 0.1 to 1
CC(C)(C)OC(=O)N[C@H]1CCCCC/C=C\[C@@H]2C[C@@]2(C(=O)O)NC(=O)[C@@H]2C[C@@H](Oc3ccnc4ccccc34)CN2C1=O [Compound 206] | < 0.1
COc1ccc2c(O[C@@H]3C[C@H]4C(=O)N[C@]5(C(=O)O)C[C@H]5/C=C\CCCCC[C@H](NC(=O)OC(C)(C)C)C(=O)N4C3)ccnc2c1 [Compound 207] | < 0.1
COc1ccc2c(O[C@@H]3C[C@H]4C(=O)N[C@]5(C(=O)O)C[C@H]5/C=C\CCCCC[C@H](NC(=O)OC(C)(C)C)C(=O)N4C3)cc(-c3ccccc3)nc2c1 [Compound 208] | < 0.1
COc1ccc2c(O[C@@H]3C[C@H]4C(=O)N[C@]5(C(=O)O)CC5/C=C\CCCCC[C@H](NC(=O)NC(C)(C)C)C(=O)N4C3)cc(-c3ccccc3)nc2c1 (stereo partly shown) [Compound 209] | < 0.1
COc1ccc2c(O[C@@H]3C[C@H]4C(=O)N[C@]5(C(=O)O)C[C@H]5/C=C\CCCCC[C@H](N)C(=O)N4C3)cc(-c3ccccc3)nc2c1 [Compound 211] | < 0.1
COc1ccc2c(O[C@@H]3C[C@H]4C(=O)N[C@]5(C(=O)O)C[C@H]5CCCCCCC[C@H](NC(=O)OC(C)(C)C)C(=O)N4C3)cc(-c3ccccc3)nc2c1 [Compound 215] | < 0.1
COc1ccc2c(O[C@@H]3C[C@H]4C(=O)N[C@]5(C(=O)O)C[C@H]5CCCCCCC[C@H](NC(C)=O)C(=O)N4C3)cc(-c3ccccc3)nc2c1 [Compound 219] | < 0.1
COc1ccc2c(O[C@@H]3C[C@H]4C(=O)N[C@]5(C(=O)O)C[C@@H]5/C=C\CCCCC[C@H](NC(=O)OC(C)(C)C)C(=O)N4C3)cc(-c3nccs3)nc2c1 [Compound 220] | < 0.1

same assay, conditions: fluorogenic assay of Example 48; no asterisk; read-out: enzyme activity (IC50 grade)

Compound | IC50 [µM]
CC(C)(C)OC(=O)N[C@H]1CCCCCC=CCCC2CC2(C(=O)O)NC(=O)[C@@H]2C[C@@H](Oc3ccnc4ccccc34)CN2C1=O (single isomer, unassigned) [Compound 301] | 0.1 to 1
COc1ccc2c(O[C@@H]3C[C@H]4C(=O)N[C@]5(C(=O)O)C[C@@H]5/C=C/CCC[C@H](NC(=O)OC(C)(C)C)C(=O)N4C3)cc(-c3ccccc3)nc2c1 [Compound 302] | > 1
COc1ccc2c(O[C@@H]3C[C@H]4C(=O)N[C@]5(C(=O)O)C[C@@H]5/C=C/COCCC[C@H](NC(=O)OC(C)(C)C)C(=O)N4C3)cc(-c3ccccc3)nc2c1 [Compound 303] | 0.1 to 1
